Test results from ChEMBL document CHEMBL5360581, “Discovery of a novel dual functional phenylpyrazole-styryl hybrid that induces apoptotic and autophagic cell death in bladder cancer cells” (Eur J Med Chem, 2023).
The source made the active and inactive calls. The calls are words filed in the database; no cut-off is given here.

How the values were obtained:
[1] = test system: SW-620; experiment: Antiproliferative activity against human SW620 cells assessed as reduction in cell viability at 20 uM measured for 72 hrs by MTT assay; format: functional, cell-based
[2] = test system: A549; experiment: Antiproliferative activity against human A549 cells assessed as reduction in cell viability at 20 uM measured for 72 hrs by MTT assay; format: functional, cell-based
[3] = test system: EJ-28; experiment: Antiproliferative activity against human EJ-28 cells assessed as reduction in cell viability at 20 uM measured for 72 hrs by MTT assay; format: functional, cell-based
[4] = test system: HT-1080; experiment: Antiproliferative activity against human HT-1080 cells assessed as reduction in cell viability at 20 uM measured for 72 hrs by MTT assay; format: functional, cell-based
[5] = test system: MCF7; experiment: Antiproliferative activity against human MCF7 cells assessed as reduction in cell viability at 20 uM measured for 72 hrs by MTT assay; format: functional, cell-based
[6] = test system: SW-620; experiment: Cytotoxicity against human SW620 cells assessed inhibition of cell growth incubated for 72 hrs by MTT assay; format: functional, cell-based; conditions: SW-620, 72 h
[7] = test system: A549; experiment: Cytotoxicity against human A549 cells assessed inhibition of cell growth incubated for 72 hrs by MTT assay; format: functional, cell-based; conditions: A549, 72 h
[8] = test system: EJ-28; experiment: Cytotoxicity against human EJ-28 cells assessed inhibition of cell growth incubated for 72 hrs by MTT assay; format: functional, cell-based; conditions: EJ-28, 72 h
[9] = test system: HT-1080; experiment: Cytotoxicity against human HT-1080 cells assessed inhibition of cell growth incubated for 72 hrs by MTT assay; format: functional, cell-based; conditions: HT-1080, 72 h
[10] = test system: MCF7; experiment: Cytotoxicity against human MCF7 cells assessed inhibition of cell growth incubated for 72 hrs by MTT assay; format: functional, cell-based; conditions: MCF7, 72 h
[11] = Cytotoxicity against human NHDF cells assessed inhibition of cell growth incubated for 72 hrs by MTT assay; format: toxicity, cell-based
[12] = Selectivity index, ratio of IC50 for cytotoxicity against human NHDF cells to IC50 for cytotoxicity against human SW620 cells
[13] = Selectivity index, ratio of IC50 for cytotoxicity against human NHDF cells to IC50 for cytotoxicity against human A549 cells; format: toxicity, cell-based; conditions: NHDF cells and A549 cells, read-out: Ratio IC50
[14] = Selectivity index, ratio of IC50 for cytotoxicity against human NHDF cells to IC50 for cytotoxicity against human EJ-28 cells
[15] = Selectivity index, ratio of IC50 for cytotoxicity against human NHDF cells to IC50 for cytotoxicity against human HT-1080 cells
[16] = Selectivity index, ratio of IC50 for cytotoxicity against human NHDF cells to IC50 for cytotoxicity against human MCF7 cells; format: toxicity, cell-based; conditions: NHDF cells and MCF7 cells, read-out: Ratio IC50

Oc1ccccc1-c1cc(/C=C/c2ccc(Cl)cc2)nn1-c1ccccc1
Activity [1]: Active | Activity [2]: Active | Activity [3]: Active | Activity [4]: Active | Activity [5]: Active | IC50 [6]: 16.5 µM | IC50 [7]: 26.3 µM | IC50 [8]: 13.4 µM | IC50 [9]: 15.8 µM | IC50 [10]: 15.2 µM | IC50 at 72 h [11]: 40.5 µM | Ratio IC50 [12]: 1.5 | selectivity ratio [13]: 1.5 | Ratio IC50 [14]: 1.5 | Ratio IC50 [15]: 1.5 | selectivity ratio [16]: 1.5

Oc1ccc(Cl)cc1-c1cc(/C=C/c2ccccc2Cl)nn1-c1ccccc1
Activity [1]: Active | Activity [2]: Active | Activity [3]: Active | Activity [4]: Active | Activity [5]: Active | IC50 [6]: 9.5 µM | IC50 [7]: 13.2 µM | IC50 [8]: 5.1 µM | IC50 [9]: 10.9 µM | IC50 [10]: 5.7 µM | IC50 at 72 h [11]: 19.7 µM | Ratio IC50 [12]: 1.5 | selectivity ratio [13]: 1.5 | Ratio IC50 [14]: 1.5 | Ratio IC50 [15]: 0.9 | selectivity ratio [16]: 0.9

O=[N+]([O-])c1cccc(/C=C/c2cc(-c3ccccc3O)n(-c3ccccc3)n2)c1
Activity [1]: Active | Activity [2]: Active | Activity [3]: Active | Activity [4]: Active | Activity [5]: Active | IC50 [6]: 9.7 µM | IC50 [7]: 21.7 µM | IC50 [8]: 7.4 µM | IC50 [9]: 16.5 µM | IC50 [10]: 15 µM | IC50 at 72 h [11]: 42.9 µM | Ratio IC50 [12]: 2 | selectivity ratio [13]: 2 | Ratio IC50 [14]: 2 | Ratio IC50 [15]: 2 | selectivity ratio [16]: 2

Oc1ccccc1-c1cc(/C=C/c2ccccc2Cl)nn1-c1ccccc1
Activity [1]: Active | Activity [2]: Active | Activity [3]: Active | Activity [4]: Active | Activity [5]: Active | IC50 [6]: 15.7 µM | IC50 [7]: 22.4 µM | IC50 [8]: 11.7 µM | IC50 [9]: 16.9 µM | IC50 [10]: 15.3 µM | IC50 at 72 h [11]: > 50 µM | Ratio IC50 [12]: >2.2 | selectivity ratio [13]: > 2.2 | Ratio IC50 [14]: >2.2 | Ratio IC50 [15]: >2.2 | selectivity ratio [16]: > 2.2

Oc1ccccc1-c1cc(/C=C/c2cccc(Cl)c2)nn1-c1ccccc1
Activity [1]: Active | Activity [2]: Active | Activity [3]: Active | Activity [4]: Active | Activity [5]: Active | IC50 [6]: 11.6 µM | IC50 [7]: 24.3 µM | IC50 [8]: 8.9 µM | IC50 [9]: 13.8 µM | IC50 [10]: 10.9 µM | IC50 at 72 h [11]: 39.4 µM | Ratio IC50 [12]: 1.6 | selectivity ratio [13]: 1.6 | Ratio IC50 [14]: 1.6 | Ratio IC50 [15]: 1.6 | selectivity ratio [16]: 1.6

Oc1ccc(Cl)cc1-c1cc(/C=C/c2ccc(Cl)cc2)nn1-c1ccccc1
Activity [1]: Active | Activity [2]: Active | Activity [3]: Active | Activity [4]: Active | Activity [5]: Active | IC50 [6]: 16.6 µM | IC50 [7]: 21.5 µM | IC50 [8]: 6.5 µM | IC50 [9]: 17.4 µM | IC50 [10]: 10.6 µM | IC50 at 72 h [11]: 42.9 µM | Ratio IC50 [12]: 2 | selectivity ratio [13]: 2 | Ratio IC50 [14]: 2 | Ratio IC50 [15]: 2 | selectivity ratio [16]: 2

COc1ccc(/C=C/c2cc(-c3cc(Cl)ccc3O)n(-c3ccccc3)n2)cc1OC
Activity [1]: Active | Activity [2]: Active | Activity [3]: Active | Activity [4]: Active | Activity [5]: Active | IC50 [6]: 16.1 µM | IC50 [7]: 15.3 µM | IC50 [8]: 17.6 µM | IC50 [9]: 14.5 µM | IC50 [10]: 9.6 µM | IC50 at 72 h [11]: 39.9 µM | Ratio IC50 [12]: 2.5 | selectivity ratio [13]: 2.5 | Ratio IC50 [14]: 2.5 | Ratio IC50 [15]: 2.5 | selectivity ratio [16]: 2.5
